What was measured:
[1] = test system: prostromelysin protein; assay: Western immunoblot of IL-1-induced prostromelysin protein in primary bovine chondrocytes; format: cell-based; conditions: for effect on IL-1-induced prostromelysin levels: first experiment; for effect on IL-1α-induced prostromelysin protein levels: repeat experiment
Protocol: Isolation and culturing of primary bovine articular chondrocytes, as well as addition of inhibitors were performed as indicated above in Example 4. The following protein kinase inhibitors were tested: 1) Protein kinase A (PKA) inhibitors; 0.5 μM H88 (Seikagaku Corp.), 0.5 μM H89 (Seikagaku Corp.), 2) Protein kinase C (PKC) inhibitors; 0.5 μM Calphostin C (Calbiochem), 1.0 μM Chelerythrine (Calbiochem); 3) CA^2+/Calmodulin Kinase II inhibitor; 5.0 μM KN93 (Seikagaku Corp.); 4) Protein tyrosine kinase (PTK) inhibitors; 50 μM Genistein (Calbiochem), 10 μM Herbimycin A (Calbiochem).
After the 24 hour IL-1α incubation, the media of each sample was measured and collected on ice in the presence of the protease inhibitors EGTA (5 mM), Pefabloc (1 mM), pepstatin (1 μg/ml), and NEM (5 mM). Media were concentrated approximately 40 fold using a Centriprep-10 ultrafiltration device (Amicon). Concentrated samples were normalized to equivalent starting concentrations (cell number/culture volume), were reduced in the presence of SDS Laemmli sample buffer and electrophoresed in a precast 12% polyacrylamide gel (BioRad). Protein samples were then electroblotted to nitrocellulose and immunodetected using a primary antibody that recognizes both prostromelysin and stromelysin. Immunoreactive bands were visualized with the ABC detection (Pierce) and an NBT/BCIP color reagent (Sigma).
A repeat of the Western immunoblotting experiment using antistromelysin antibodies was performed. Furthermore, additional inhibitors from four enzyme families were examined: 1) Protein tyrosine kinase (PTK) inhibitors: 1 μM Tyrphostin AG 1296 (Calbiochem), 50 μM Tyrphostin A25 (AG 82) (Calbiochem), 50 μM Tyrphostin AG 126 (Calbiochem); 2) Guanylate cyclase inhibitor; 10 μM LY-83583 (Calbiochem); 3) Casein kinase I inhibitor; 20 μM CKI-7 (Seikagaku Corp.); and 4) Protein kinase G (PKG) and PKA inhibitor; 5.0 μM H89.

[2] = test system: aggrecanase cleavage of aggrecan (230K fragment); assay: Aggrecanase neoepitope in IL-1-stimulated chondrocytes, BC-3 antibody immunoblot; format: cell-based, bovine
Protocol: (§1) Primary bovine articular chondrocytes from calf adio-carpal joints were isolated and cultured as above in Example 1, up to and including the addition of the following protein kinase inhibitors: 1) Protein kinase A (PKA) inhibitors; 0.5 μM H88 (Seikagaku Corp.), 0.5 μM H89 (Seikagaku Corp.); 2) Protein kinase C (PKC) inhibitors; 0.5 μM Calphostin C (Calbiochem), 1.0 μM Chelerythrine (Calbiochem); 3) CA^2+/Calmodulin Kinase II inhibitor; 5.0 μM KN93 (Seikagaku Corp.); 4) Protein tyrosine kinase (PTK) inhibitors; 50 μM Genistein (Calbiochem), 10 μM Herbimycin A (Calbiochem). After the 24 hour IL-1α incubation, the media of each sample was measured, and collected on ice in the presence of the protease inhibitors EGTA (5 mM), Pefaloc (1 mM), pepstatin (1 μg/ml), and NEM (5 mM). Media were concentrated approximately 40 fold using a Centriprep-10 ultrafiltration device (Amicon).
(§2) Proteoglycans contained within the media were deglycosylated by incubations with chondroitinase ABC, keratinase, and keratinase II following the procedure of Sandy et al. J Biol Chem (1991) 266:8683-8685 and Sandy et al. J. Clin Invest (1992) 89:1512-1516. Samples of deglycosylated media were subjected to 4-15% gradient SDS-PAGE and transferred to nitrocellulose membranes (2 ml-worth and 6 ml-worth of media were used for 2-B-6 and BC-3 immunoblotting, respectively.) The membranes were blocked with 1% nonfat dry milk and 1% BSA, and then incubated in either the BC-3 or 2-B-6 primary monoclonal antibody for 1 hour. The 2-B-6 antibody detects chondroitin sulfate stubs on chondroitinase-treated proteoglycans (both intact and degradation products. BC-3 antibody detects “ARGSV . . . ,” the new N-terminus (“neoepitope”) resulting from cleavage of aggrecan interglobular domain at Glu^373/ALA^374 by aggrecanase. It is of note to mention that the BC-3 and 2-B-6 antibodies were of low sensitivity. Following 3 washes, membranes were incubated in either alkaline phosphatase-conjugated goat anti-mouse (for the 2-B-6 blot) or biotinylated goat anti-mouse (for the BC-3 blot); followed by alkaline phosphatase-conjugated streptavidin/biotin complex). After washing 3 times, immunoreactive proteins were detected using NBT/BCIP (Sigma) colorimetric substrate.

[3] = test system: IL-1-induced aggrecan degradation; assay: Aggrecan degradation in IL-1-stimulated chondrocytes, 2-B-6 antibody immunoblot; format: cell-based, bovine
Protocol: as §1, §2
The 2-B-6 antibody detected intact aggrecan (the uppermost band) and several aggrecan degradation products, along with decorin and biglycan (50K doublet), in the IL-1-treated media samples. […] The bands in the IL-1 sample that are seen at 230K, 200K, 130K and 100K have been previously identified by sequence analysis to result from IL-1-induced “aggrecanase” cleavage.
A repeat of the Western immunoblotting experiment using 2-B-6 antibodies was performed. Furthermore, additional inhibitors from four enzyme families were examined: 1) Protein tyrosine kinase (PTK) inhibitors; 1 μM Tryphostin AG 1296 (Calbiochem), 50 μM Tyrphostin A25 (AG 82) (Calbiochem), 50 μM Tyrphostin AG 126 (Calbiochem), 50 μM Tyrphostin B56 (AG 556) (Calbiochem), 20 μM DAPH (Calbiochem); 2) Guanylate cyclase inhibitor; 10 μM LY-83583 (Calbiochem); 3) Casein kinase I inhibitor; 20 μM CKI-7 (Seikagaku Corp.); and 4) Protein kinase G (PKG) and PKA inhibitor; 5.0 μM H89.

[4] = test system: IL-1 induced release of 35S-labelled proteoglycans from chondrocytes; assay: Chondrocyte cell culture matrix breakdown assay (IL-1 induced 35S release); format: cell-based, calf (bovine); conditions: for inhibitory effect on IL-1 induced release of 35S-labelled proteoglycans: first experiment; for percent inhibition of IL-1 induced 35S release: repeated assay
Protocol: A cell culture assay was used to measure the ability of the test compounds to slow the degradation of the extracellular matrix by a metalloproteinase. This assay measured the amount ^35S released from chondrocytes grown in a media with ^35S labeled sodium sulfate. The cell culture assay was carried out as follows:
Two or three 1 to 3 week old calf joints were obtained from an abattoir. The proximal end of the shank was about 4-5′ long to facilitate immobilization in the holder. The joint was kept cool and transported on ice. The exterior of the intact joints was washed well with a suitable anti-microbial soap, rinsed clean with warm water, rinsed in betadine and then finally rinsed with 70% ethanol. Up to this point all steps were done in a manner to ensure that the joint was kept as clean as possible. All subsequent steps were performed in a sterile field (i.e., in a Edgeguard laminar flow tissue culture hood). The joint was immobilized and the synovial fluid was aspirated with a needle and syringe. The joint was then cut open to expose the articular cartilage using a #21 scalpel. Using locking hemostats, forceps and a #15 scalpel, the cartilage was excised in full thickness pieces. Care was taken not to cut too deep into the subchondral bone to prevent bleeding. The cartilage pieces were placed into a 50 mL centrifuge tube containing 25 mL of Delbecco's phosphate buffered saline (D-PBS) supplemented with 1% antibiotic solution (penicillin, streptomycin and fungizone; GIBCO/BRL). The slices from each joint were then placed into separate 50 mL centrifuge tubes. The D-PBS was decanted and replaced with 25 mL of fresh D-PBS supplemented with antibiotics and subsequently agitated gently.
The cartilage pieces were transferred to a fresh 50 mL centrifuge tube and rinsed once more with 25 mL of D-PBS minus antibiotics. An enzymatic digestion solution containing 1 mg/mL of hyaluronidase in serum-free 1:1 DMEM/Ham's F-12 (DMEM/F12) was prepared. This solution was filter sterilized with 0.22 mm Milex-GV filter and kept on ice until ready to use. The cartilage pieces were digested with approximately 5 mL of hyaluronidase solution per joint for 2×15 minutes at 37° C. in the 50 mL centrifuge tube with gentle agitation at the 15 minute mark. This procedure removed residual hyaluronic acid from the surface of the chips. The enzymatic digestion solution was then aspirated and the cartilage pieces were rinsed with 25 mL of D-PBS.
A second enzymatic digestion solution containing 2.5 mg trypsin and 2 mg collagenase P per mL serum-free DMEM/F12 was prepared. This solution was also filter sterilized with a 0.22 mm Millex-GV filter and kept on ice until ready to use. The cartilage pieces were digested with approximately 5 mL of trypsin: collagenase solution per joint for 2×15 minutes at 37° C. in the 50 mL centrifuge tube with gentle agitation at the 15 minute mark. This procedure removed the synovial fibroblasts and any adherent connective tissue from the surface of the chips. The enzymatic digestion solution was then carefully removed and saved and the cartilage pieces were rinsed with 25 mL of D-PBS.
A third enzymatic solution containing 2 mgs of collagenase P (BMB) per mL serum-free DMEM/F12 was prepared. This solution was filter sterilized with a 0.22 mm Millex-GV filter and kept on ice until ready to use. The pre-digested cartilage pieces were finally digested with approximately 20 mL of enzymatic digestion solution per joint for 5-6 hours at 37° C. in a Bellco stirring digestion flask, at which point the cartilage was fully digested away.
The enzymes in the synovial fibroblast and chondrocyte digest were neutralized by addition of an equal volume of DMEM/F12 supplemented with 5% fetal bovine serum. Fibroblasts were plated in DMEM at a cellular density of 6.6×10^3 cells per cm^2. […]

[5] = target: protein kinase C alpha (Homo sapiens, UniProt P17252); conditions: at 100 μM; cited from earlier work
[6] = test system: Ca^2+-calmodulin dependent protein kinase II; conditions: cited from earlier work
[7] = target: protein kinase C gamma (Homo sapiens, UniProt P05129); conditions: at 100 μM; cited from earlier work
[8] = target: protein kinase C beta (Homo sapiens, UniProt P05771); conditions: at 100 μm; cited from earlier work
[9] = test system: primary bovine articular chondrocytes; assay: In vitro MTT cytotoxicity assay; format: cell-based; conditions: 1 μM; 20 hours incubation + 4 hours MTT
From the text: The evaluation of cytotoxicity of compounds by in vitro methods allows one to establish criteria which allow rank ordering among compounds. These methods assess cell permeability, release of cytosolic enzymes, and oxidative potential of cells. The use of tetrazolium dyes to assess cytotoxicity has been established in the area of oncology, where such assays were developed to assess the cytotoxic potential of various chemotherapeutic agents. We have adapted the use of the MTT (3-(4,5-dimethylthiazol-2-yl)-2,5-diphenyl tetrazolium bromide) in an assay using primary bovine articular chondrocytes. The procedure for this assay is given below.
Chondrocytes are isolated from bovine calf radio-carpal joints as described in Example 1. Cells are plated in two 96-well plates at 4×10^4 cells per well, in DMEM/F12 media supplemented with 10% fetal bovine serum. The cultures are refed on days 4, 7, 11, 14, 18, 21 and 24. On day 27, the cells are rinsed with PBS, and incubated for 20 hours with 0.2 ml/well of serum-free DMEM/F12 plus 0.1% DMSO, and the test compounds. Genistein (50 μM), Herbimycin (10 μM) and Staurosporine (1 μM) were each used as test compounds. […] The 96-well plate is then read in a microplate reader at 560 nm, with subtraction of absorbance at 750 nm to account for cell debris.

[10] = test system: bovine cartilage explant; conditions: cited from earlier work

protein kinase C beta, sequence (P05771 whole entry): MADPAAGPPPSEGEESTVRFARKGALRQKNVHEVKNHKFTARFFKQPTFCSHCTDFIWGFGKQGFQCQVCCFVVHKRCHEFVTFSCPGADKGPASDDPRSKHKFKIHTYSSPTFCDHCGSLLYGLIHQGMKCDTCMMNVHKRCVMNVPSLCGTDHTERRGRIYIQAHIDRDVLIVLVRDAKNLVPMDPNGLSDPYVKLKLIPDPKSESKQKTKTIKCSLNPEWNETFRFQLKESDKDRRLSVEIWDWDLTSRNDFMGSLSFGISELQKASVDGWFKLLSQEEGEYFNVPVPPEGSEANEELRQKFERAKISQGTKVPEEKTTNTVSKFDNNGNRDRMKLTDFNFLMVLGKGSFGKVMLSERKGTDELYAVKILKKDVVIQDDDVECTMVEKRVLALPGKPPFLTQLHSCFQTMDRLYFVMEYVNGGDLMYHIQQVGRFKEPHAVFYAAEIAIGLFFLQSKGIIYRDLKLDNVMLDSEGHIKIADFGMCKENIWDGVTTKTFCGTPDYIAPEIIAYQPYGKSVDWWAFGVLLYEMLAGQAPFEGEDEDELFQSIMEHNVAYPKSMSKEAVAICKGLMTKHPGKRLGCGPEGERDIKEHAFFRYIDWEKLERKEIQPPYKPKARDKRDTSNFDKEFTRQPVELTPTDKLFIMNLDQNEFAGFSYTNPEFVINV

Q: Which “effect on IL-1-induced prostromelysin levels” value ([1]; 0.5 μM) does the source give for `O=S(=O)(NCCNC/C=C/c1ccc(Br)cc1)c1cccc2cnccc12` [H89] here?
A: no effect

Q: And the “BC-3 immunoreactive band at approximately 230K (aggrecanase-mediated fragment)” value ([2]; 0.5 μM)?
A: detected

Q: What about the “band pattern (ratio of intact aggrecan to 230K fragment), 2-B-6” value ([3]; 0.5 μM) of the same compound?
A: pattern similar to IL-1 alone

Q: And the “inhibitory effect on IL-1 induced release of 35S-labelled proteoglycans” value (“inhibitory effect” below) ([4]; 0.5 μM)?
A: no effect

Q: And the “percent inhibition of IL-1 induced 35S release” value ([4]; 0.5 μM)?
A: Little or no inhibition

Q: With `NC1=N/C(=C2/CCNC(=O)c3[nH]ccc32)C(=O)N1` [debromohymenialdisine] as the compound, how does the “inhibition of protein kinase C alpha” value [5] read?
A: 97%

Q: What about the “inhibition of Ca2+-calmodulin dependent protein kinase II” value [6] of the same compound?
A: 94%

Q: What about the “inhibition of protein kinase C gamma” value [7] of the same compound?
A: 108%

Q: What about the “inhibition of protein kinase C beta” value [8] of the same compound?
A: 95%

Q: Which results are given for `COc1ccc(S(=O)(=O)N(CCO)c2ccccc2CN(C)C/C=C/c2ccc(Cl)cc2)cc1` [KN-93]?
A: effect on IL-1-induced prostromelysin levels ([1]; 5.0 μM): no effect; BC-3 immunoreactive band at approximately 230K (aggrecanase-mediated fragment) ([2]; 5.0 μM): absence; band pattern (ratio of intact aggrecan to 230K fragment), 2-B-6 ([3]; 5.0 μM): pattern similar to IL-1 alone; inhibitory effect on IL-1 induced release of 35S-labelled proteoglycans ([4]; 5 μM): no effect

Q: For `COc1ccc2c(c[n+](C)c3c4cc5c(cc4ccc23)OCO5)c1OC` [Chelerythrine], which “band pattern (ratio of intact aggrecan to 230K fragment), 2-B-6” value ([3]; 1.0 μM) is on record?
A: pattern similar to IL-1 alone

Q: And the “inhibitory effect” value ([4]; 1 μM)?
A: no effect

Q: Which results are given for CKI-7?
A: effect on IL-1α-induced prostromelysin protein levels ([1]; 20 μM): no effect; percent inhibition of IL-1 induced 35S release ([4]; 20 μM): no inhibition

Q: With `CN[C@@H]1C[C@H]2O[C@@](C)([C@@H]1OC)n1c3ccccc3c3c4c(c5c6ccccc6n2c5c31)C(=O)NC4` [Staurosporine] as the compound, how does the “cytotoxicity, reduction of MTT dye” value [9] read?
A: reduction of MTT consistent with cytotoxicity

Q: With `NC1=NC(=O)/C(=C2\CCNC(=O)c3[nH]c(Br)cc32)N1` [Z-hymenialdisine] as the compound, how does the “inhibition of cartilage degradation in the bovine cartilage explant assay” value [10] read?
A: inhibit cartilage degradation

Q: Which “effect on IL-1α-induced prostromelysin protein levels” value ([1]; 10 μM) does the source give for `O=C1C(Nc2ccccc2)=CC(=O)c2ncccc21` [LY-83583] here?
A: no effect

Q: With Calphostin C as the compound, how does the “effect on IL-1-induced prostromelysin levels” value ([1]; 0.5 μM) read?
A: no effect

Q: What about the “BC-3 immunoreactive band at approximately 230K (aggrecanase-mediated fragment)” value ([2]; 0.5 μM) of the same compound?
A: detected

Q: And the “band pattern (ratio of intact aggrecan to 230K fragment), 2-B-6” value ([3]; 0.5 μM)?
A: pattern similar to IL-1 alone

Q: What about the “inhibitory effect” value ([4]; 0.5 μM) of the same compound?
A: no effect

Q: With `COc1cc2ncc(-c3ccccc3)nc2cc1OC` [Tyrphostin AG 1296] as the compound, how does the “effect on IL-1α-induced prostromelysin protein levels” value ([1]; 1 μM) read?
A: no effect

Q: And the “inhibition of IL-1-induced aggrecan degradation, 2-B-6” value ([3]; 1 μM, repeat experiment)?
A: no inhibitory effect

Q: And the “percent inhibition of IL-1 induced 35S release” value ([4]; 1 μM)?
A: no inhibition

From US6552066B1, “Protein tyrosine kinase inhibitors for treating osteoarthritis” (priority 1995, dated 2003)
